# Measured values: US7579322B2, “Compositions and methods for promoting myocardial and peripheral angiogenesis” (Zimmer Orthobiologics, Inc., priority 2001, dated 2009)
# Ends that are not written are not given here.
# Legend:
# [1] = test system: human aortic endothelial cells; experiment: In vitro cell migration assay (chemotaxis tray / modified Boyden chamber), endothelial cells; assay type: cell-based; settings: for migration of human aortic endothelial cells: compared to negative control / scramble peptides, 4 hours incubation
# Experimental: (§1) The ability of IGD-motif peptides according to the present invention to promote cell migration of human endothelial and smooth muscle cells, which are processes characteristic of angiogenesis, was evaluated by conducting cell migration assays for the peptides of SEQ ID NOS 1 and 2, and a scramble of the IGD peptide characterized by the DIG sequence. A capped version of the scramble characterized by the GGDIGGG (SEQ ID NO:7) sequence was also tested.
# (§2) Chemotaxis trays (Chemo Tx disposable migration chamber, 6 mm diameter, 300 μl/well, 96 wells with 8 μm filter membranes from Neuro Probe, Inc., Gaithersville, Md.) for evaluating cell migration of the peptides were sterilized by placing the trays under UV light overnight. Further operations with the membrane were carried out under aseptic conditions. The filter membranes were loaded with gelatin to provide a suitable environment for the cells testing by soaking in 3% acetic acid overnight and then for 2 hours in 0.1 mg/ml gelatin. They were then rinsed in sterile water and allowed to air dry. Such membranes may be stored at room temperature for up to 1 month.
# The cells to be used in the assay (endothelial cells or smooth muscle cells) were starved for 24 hours before use in appropriate culture media containing 0.1% Fetal Bovine Serum (“FBS”) instead of the customary 10% FBS serum, and 1× penicillin-streptomycin antibiotics. The wells of the 96 well chamber of the chemotaxis unit were filled with media containing 0.1% serum alone or 0.1% serum and the test material (control or chemoattractant respectively). The filter membrane was positioned over the plate, aligning the holes in the corners of the frame with the four pins on the microplate, and the membrane was snapped into place making sure that the media in the wells touched the membrane completely. Fifty (50) μl of cell suspension in the starvation-media, at a concentration of 4×10^4 viable cells per charge were plated onto each site (over each well). The plate was incubated at 37° C. in an atmosphere of 5% CO2 for 4 hours.
# (§3) After incubation the lid was removed and with the filter still in place the cells on the upper surface of the membrane were gently wiped off and washed by carefully flushing the top surface of the filter with media by holding the plate with filter at a 45° angle over a container. The cells on the undersurface of the membrane were then fixed in methanol (˜20 minutes) and stain with Diff-Quik Staining Set. The membrane was then allowed to dry and the number of cells that migrated through the filter pores was determined by counting the number in a field under a light microscope.
# [2] = test system: human smooth muscle cells; experiment: In vitro cell migration assay (chemotaxis tray), smooth muscle cells; assay type: cell-based; settings: compared to controls; 4 hours incubation
# Experimental: as §1, §2
# The cells to be used in the assay (endothelial cells or smooth muscle cells) were starved for 24 hours before use in appropriate culture media containing 0.1% Fetal Bovine Serum (“FBS”) instead of the customary 10% FBS serum, and 1× penicillin-streptomycin antibiotics. The wells of the 96 well chamber of the chemotaxis unit were filled with media containing 0.1% serum alone or 0.1% serum and the test material (control or chemoattractant respectively). […]
# as §3, with “The cells on the undersurface of the membrane were then fixed in methanol (˜20 minutes) and stain with Diff-Quik Staining Set.” left out
# [3] = test system: human aortic endothelial cells; experiment: In vitro cell proliferation assay (CyQuant); assay type: cell-based; settings: for proliferation of human aortic endothelial cells: compared to controls, 48 hours, two different concentrations
# Experimental: The capacity of IGD-motif peptides according to the present invention to promote […] of human aortic endothelial cells was evaluated by conducting in vitro cell proliferation assays for the peptide of SEQ ID NOS 1 and 2, the DIG scramble peptide, and the capped version of the scramble, GGDIGGG (SEQ ID NO:7). Human aortic endothelial cells grown to ˜95% confluency were seeded (5000 cells/well) in growth medium for four hours to allow cells to adhere. The cells were then transferred to the starvation medium described in Example 1 and starved for about 18 hours. The cells were then transferred to starvation medium containing the test peptide, and the cells were allowed to proliferate for an additional 48 hours. The medium was then removed and the wells were washed with PBS. The cells were then subjected to a single freeze-thaw cycle. CyQuant reagent (Molecular Probes, Eugene, Oreg.) was then added to the cells according to the manufacturer's instructions and the cells incubated for 5 minutes in the dark. The intensity of the color—which is directly proportional to the number of cells—is read at an excitation wavelength of 485 nm and the emission wavelength set at 535 nm.
# [4] = test system: quail chorioallantoic membrane (CAM); experiment: Quail chorioallantoic membrane (CAM) angiogenesis assay; assay type: in vivo, Japanese quail (cotumix cotumix japonica); settings: for angiogenesis / increase in blood vessels in quail CAM: 24 hours incubation, compared to controls / scramble peptides
# Experimental: The activity of IGD-motif peptides for inducing migration and proliferation in endothelial or smooth muscle cells in an in vitro quail chorioallantoic membrane (CAM) model was assayed in a similar manner to that described by Parsons-Wingerter et al., Microvascular Research 55:201-214 (1998), the disclosure of which is hereby incorporated herein by reference. Briefly, fertilized Japanese quail eggs (cotumix cotumix japonica) were opened onto petri dishes on day 3 post-incubation. After 7 days of culture, the four IGD-motif peptides tested in Examples 1 and 2 (IGD, GGIGD (residues 1-5 of SEQ ID NO:2), DIG, GGDIGGG (SEQ ID NO: 7)) each dissolved in 1% polyvinyl pyrrolidine prewarmed to 37° C., were distributed evenly onto the surface of a CAM in separate petri dishes. After 24 hours of incubation, the CAM's were fixed, dissected and photographed at 10× magnification to visualize the arterial vascular tree, including endstage vessels. Digital images of triplicate CAM specimens were acquired at 10× magnification in grayscale, binarized to black-and-white, and skeletonized. The vessel branching pattern was analyzed and quantified by the fractal dimension.
# [5] = test system: dermal fibroblasts; settings: cited from earlier work
# [6] = test system: rat wound healing model; settings: under certain conditions; cited from earlier work
Substance,"migration of human aortic endothelial cells compared to the uncapped peptide ([1]; at a 10-fold lower concentration, FIG. 1A)",migration of human aortic endothelial cells [1],migration of human aortic endothelial cells ([1]; listed as SEQ ID NO. 2),cell migration of human smooth muscle cells [2],proliferation response relative to the uncapped tripeptide ([3]; FIG. 2),proliferation of human aortic endothelial cells [3],angiogenesis / increase in blood vessels in quail CAM [4],angiogenesis / increase in blood vessels in quail CAM ([4]; listed as capped peptide),"blood vessel increase in quail CAM compared to the uncapped peptide ([4]; at equivalent concentrations, FIG. 3A)",optimal concentration for migration of human aortic endothelial cells ([1]; FIG. 1A) [μm],migration of human aortic endothelial cells ([1]; listed as IGD tripeptide),migration of human aortic endothelial cells ([1]; listed as SEQ ID NO. 1),angiogenesis / increase in blood vessels in quail CAM ([4]; listed as uncapped peptide),cell migration of dermal fibroblasts [5],fibroblast migration [6],vessel number [6]
GGIGDGG (not fully specified) [Gly-Gly-Ile-Gly-Asp-Gly-Gly],better migration compared to the uncapped peptide,increased migratory response,promoted cell migration,promoted cell migration,nearly twice that of the uncapped tripeptide,promoted cell proliferation,promoted angiogenesis,increase in blood vessels,better than the uncapped peptide,–,–,–,–,–,–,–
GGDIGGG (not fully specified) [reference compound],–,Neither the DIG scramble nor the capped GGDIGGG scramble (SEQ ID NO:7) showed cell migration significantly greater than controls,–,Neither the DIG scramble nor the capped GGDIGGG scramble (SEQ ID NO:7) showed cell migration significantly greater than controls,–,"Neither the DIG scramble nor the capped GGDIGGG scramble (SEQ ID NO:7), in contrast, showed cell migration significantly greater than controls",neither the DIG scramble nor the GGDIGGG (SEQ ID NO:7) capped scramble promoted angiogenesis significantly better than controls,–,–,–,–,–,–,–,–,–
Ile-Gly-Asp (IGD; Cell-attachment-promoting peptide),–,increased migratory response,–,promoted cell migration,–,promoted cell proliferation,promoted angiogenesis,–,–,100,dose dependent effect,promoted cell migration,increase in blood vessels,can induce cell migration,–,–
Ile-Gly-Asp-Ser (IGDS; Cell-attachment-promoting peptide),–,–,–,–,–,–,–,–,–,–,–,–,–,–,increase,increase
